These results are taken from patent publication US10759683B2, “Methods for removing mercury contaminant from aqueous solutions, and bioreactors therefor” (priority 2018, dated 2020).

“And” between values parts separate entries of the source, which are not always exact repeats. Equal values may be shown once. Read-outs that look alike come from different tables or passages of the source.

Data set [1] relates to Heliobacterium modesticaldum Ice1. Kind of data set: Hg growth assays with Heliobacterium modesticaldum Ice1. Format: cell-based. To be noted: 500 nM HgCl2 supplied as two doses of 250 nM 24 hours apart, phototrophic and chemotrophic cells in PYE. How it is done:
One-way ANOVAs were performed for phototrophic and chemotrophic Hg exposure assays using R statistical software (R Core Team R: A Language and Environment for Statistical Computing, R Foundation for Statistical Computing: 2014). In the event of detecting a significant difference, assumptions of constant variance and normality were verified with the Brusch-Pagan test and the Shapiro-Wilks test, respectively, with the significance thresholds set to p=0.05 for each test. Significant differences were then identified using the Tukey HSD test. The sample size employed for growth assays was n=3 per treatment. All assumptions were passed for significant differences and these values are reported in the Brief Description of the Drawings (see FIG. 4). A non-linear regression model was fit to the cumulative Hg^0 production data as a function of pyruvate concentration using Sigmaplot software. In this instance, a natural logarithmic function was fit to a data set of n=8. Given the significant fit, assumptions of constant variance and normality were verified with the Sigmaplot software with the significant threshold set to p=0.05 for each test.

For data set [2] the test system is unchanged. Kind of data set: microbe, parasite or virus in culture. How it is done:
The following strains were used in these studies: Heliobacterium modesticaldum Ice1, Clostridium acetobutylicum ATCC 824, Geobacter sulfurreducens PCA and Escherichia coli K-12. For phototrophic growth of H. modesticaldum, cells were supplied with constant illumination at 80 μmolphoton·m^−2·s^−1 at 50° C. whereas chemotrophic cells were grown at the same temperature in the dark in line with previous work.^32 C. acetobutylicum and E. coli were grown at 37° C. whereas G. sulfurreducens was grown at 28° C., all chemotrophically in the dark.
[…] Hg growth assays were carried out under the same phototrophic and chemotrophic conditions mentioned above.
Stock solutions used in cell cultures were all prepared following anaerobic techniques. […] For DMSO controls, the DMSO solution was bubbled with N2 prior to being added to the bioreactor; final concentration of DMSO in the reactor was 2.8 mM. Sodium nitrite stocks were prepared to a final concentration of 10 mM in ultra pure miliQ, filter-sterilized, sparged with N2 and stored at 4° C. in the dark; final concentration of NO2^− in the reactor was 10 μM. For experiments where HCO3^− was supplied, a stock solution of 1 M was prepared by dissolving NaHCO3 in ultra pure MiliQ and autoclaving for 30 minutes at 121° C. under 80% N2/20% CO2 atmosphere prior to use. Fumarate stock solutions were prepared at a final concentration of 40 mM in ultra pure miliQ, filter sterilized (0.2 μm pore size), bubbled with N2, sealed and crimped shut in sterile serum bottles prior to use. All equipment used in the anaerobic glove box was conditioned for at least 48 hours prior to use.
For Heliobacterium modesticaldum Ice1, new cultures were started from a cryostock for every bioreactor experiment. Cells were revived in DSMZ medium 655 (herein referred to as PYE) previously used to isolate H. modesticaldum (Kimble, L. K.; Mandelco, L.; Woese, C. R.; Madigan, M. T., Heliobacterium modesticaldum, sp. nov., a thermophilic heliobacterium of hot springs and volcanic soils. Archives of Microbiology 1995, 163, (4), 259-267). Cultures started from cryostock were grown phototrophically in PYE with an incandescent light source and constant illumination of 80 μmol photon m^−2s^−1 at 50° C. in line with previous work (Kimble, above) until reaching early stationary phase. Afterwards, a 10% inoculum was used to re-inoculate 10 mL of fresh PYE and cells were grown phototrophically (with the same light intensity) or chemotrophically (in the dark) at 50° C. These cultures were used to establish finely resolved growth curves and Hg growth assays (see FIGS. 1 and 2).
For experiments testing the effect of carbon source on Hg^0 production some modifications to the initial PYE medium growth protocol were made. Phototrophic H. modesticaldum cells were grown with pyruvate, acetate, acetate+HCO3^− and/or yeast extract alone as a carbon source. Cells were grown until late exponential phase before being subsampled to supply a 10% inoculum for cultures with a final volume 75 mL destined for the bioreactor and grown under the same conditions (see Table 1). […] Upon reaching late exponential phase, cells were inoculated into the bioreactor as a 10% inoculum in a final volume of 560 mL of media with the desired carbon source treatment.
Please refer to the methods section of Gregoire and Poulain (2016)^21 (which is herein incorporated by reference in its entirety) for a schematic of the bioreactor setup employed and the Hg^0 sampling methodology. Note that phototrophic bioreactor experiments were carried out using a 200 W incandescent clear light bulb at a constant illumination at 20 μmolphoton·m^−2·s^−1.

For data set [3], the system named is Geobacter sulfurreducens PCA. Briefly: Bioreactor Hg^0 production and growth of Geobacter sulfurreducens PCA supplied with Hg^II. Format: cell-based. To be noted: for Cumulative Hg(0) production / Final O.D. 600 nm: live cells, 28 C, Hg 250 pM. The text has this:
Geobacter sulfurreducens PCA cells were revived from cryostock and grown in defined medium (herein referred to as GSMM) according to previous work (Schaefer, J. K.; Morel, F. M. M., High methylation rates of mercury bound to cysteine by Geobacter sulfurreducens. Nature Geoscience 2009, 2, (2), 123-126) with the following modification: resazurin, the color indicator used to monitor anoxia, was removed to avoid issues with abiotic Hg reduction given that resazurin is a reducing agent. Cells were grown chemotrophically in the dark at 28° C. Cells took between 10 to 12 days to re-initiate growth, as such, cultures were maintained by re-inoculating fresh GSMM every 4 days with a 10% inoculum in a final volume of 10 mL. Upon reaching late exponential phase, a 10% inoculum was used to start cultures in GSMM with a final volume of 75 mL destined for the bioreactor. Upon reaching late exponential phase a 10% inoculum was used to inoculate the bioreactor where cells were supplied with Hg^II in 560 mL of PYEΔSO4^2− or GSMM medium (see Table 1).

Data set [4] deals with Clostridium acetobutylicum ATCC 824. Briefly: Bioreactor Hg^0 production and growth of Clostridium acetobutylicum ATCC 824 supplied with Hg^II. The data set is classed as cell-based. The settings on record: chemotrophy. How it is done:
For Clostridium acetobutylicum ATCC 824, new cultures were started for every bioreactor experiment. Cells were revived in DSMZ medium 104b (herein referred to as PYX). Cells were grown in the dark at 37° C. until reaching early stationary phase after which point they were rotated as a 1% inoculum in a final volume of 10 mL into fresh PYX. Cells were grown to late exponential phase, and re-inoculated as a 1% inoculum in a final volume of 75 mL of PYX in cultures destined for the bioreactor. Experiments were performed in PYE where all SO4^2− salts were substituted with chloride salts (PYEΔSO4^2−) to avoid competition between Hg^II reduction and SO4^2− reduction. Cells were also supplied with Hg^II in DSMZ medium 104b to account for the effect of suboptimal growth medium (see Table 1 and Table 3). […] The initial volume of medium in the bioreactor was corrected to ensure that identical volumes were maintained throughout all experiments.

[5] abbreviates: live cells, phototrophy, 50 C, acetate 30 mM + YE 4 g L-1, HCO3- 10 mM, Hg 250 pM.
Setting [6] is: chemotrophy, pyruvate 20 mM + YE 4 g L-1, fumarate 40 mM.
The mark [7] stands for this setting: live cells, 37 C, pyruvate 20 mM + YE 4 g L-1 (PYEΔSO4^2-), NTZ 10 μM + DMSO 2.8 mM, Hg 250 pM.
Setting [8] is: chemotrophy, pyruvate 20 mM + YE 4 g L-1 (PYEΔSO4^2-), NTZ 10 μM + DMSO 2.8 mM.

Regarding `[Cl][Hg][Cl]` [Hg^II, HgCl2], in data set [1], the “Physiological advantage / growth (rate, yield) with sublethal Hg” value was “No physiological advantage was observed except for a small increase in the yield of phototrophically grown cells”. Moreover, in data set [2] (2 nM Hg, phototrophically grown cells, 48 hours), the “Cell health at increased mercury concentration” value was “unaffected”.
For `O=C([O-])O.[Na+]` [HCO3—, NaHCO3], in data set [2] (setting [5]), the “Cumulative Hg(0) production” value was 43.31 pmol and 42.50 pmol; the “Final O.D. 600 nm” value was 0.02 and 0.039.
With `O=C(O)/C=C/C(=O)O` [Fumarate], the Cell growth entry in data set [3] (in the presence of fumarate) is “able to grow”. The “Cumulative Hg(0) production” value in data set [3] (chemotrophy, acetate 10 mM (optimal growth medium), fumarate 40 mM) was 19.81 pmol and 21.48 pmol. In data set [3] (setting [6]), the “Cumulative Hg(0) production” value is on record as 6.65 pmol and the “Final O.D. 600 nm” value was determined as 0.185. Further, the “Decrease of Hg^0 production in the presence of fumarate” value in data set [3] (with vs without fumarate as terminal electron acceptor, pyruvate + YE) was determined as 50%.
As for `O=N[O-].[Na+]` [NO2, Sodium nitrite], in data set [2], the “Cumulative Hg(0) production” value was 53.36 ± 0.13 pmol and 53.47 pmol and 53.66 pmol; the “Final O.D. 600 nm” value is 0.034 and 0.023; the “Increase in the amount of Hg^0 produced” value came to 30%.
As for `CC(=O)Oc1ccccc1C(=O)Nc1ncc([N+](=O)[O-])s1` [NTZ, nitazoxanide], the “Decrease of Hg^0 production in the presence of NTZ” value in data set [4] (NTZ 10 μM vs DMSO control) is recorded as 98%; in data set [3] (chemotrophy, NTZ 10 μM vs DMSO control) it was 62%. Moreover, the “Cumulative Hg(0) production” value in data set [4] (setting [7]) worked out at 1.20 pmol; in data set [3] (setting [8]) it was 3.19 pmol. Besides, the “Final O.D. 600 nm” value was 0.146 in data set [4] (setting [7]); 0.041 in data set [3] (setting [8]); 0.065 and 0.057 in data set [2] (live cells, chemotrophy (dark), 50 C, pyruvate 20 mM + YE 4 g L-1, NTZ 10 μM + DMSO 2.8 mM, Hg 250 pM). For the same compound, the inhibition (as a rule, the drop in the measured response relative to a control, in per cent) at 10 µM in data set [2] (Heliomicrobium modesticaldum, ICE1, read-out: Inhibition (decrease) of chemotrophic Hg^0 production compared to controls) came out at 88%. Further, the Cell growth result in data set [2] (phototrophic cells, NTZ 10 μM) is “did not grow”. In addition, the “Lag: peak of Hg^0 production occurring later than previously observed” value in data set [2] (phototrophic cells, NTZ 10 μM) is recorded as 11 h.
